Measurements from patent US10485797B2, “Treatment of pemphigus” (Principia Biopharma Inc., priority 2014, dated 2019).
Like-named read-outs stand apart in the source and are kept apart here.

Key:
[1] = cited from earlier work
[2] = cited from earlier work; for onset of effect / clinical response / time of maximal effect: pemphigus vulgaris
[3] = ANCA-associated vasculitis, cited from earlier work
BTK = biological target: T1, BTK (Canis lupus familiaris, UniProt A0A8I3P3Z9); assay: BTK occupancy in blood of the treated dog; assay type: in vivo; details: 30 kg Doberman dog, oral 500 mg daily; blood taken 24 hours after the first dose; read-out: level of BTK occupancy 24 hours after each dose
T1 construct: from tissue; host or cells: blood of the treated Doberman dog

pemphigus folliaceus = assay: Dog Pemphigus Foliaceus Study; assay type: in vivo; details: for overall efficacy and safety in treatment of PF: single agent
Method: A 30 kg Doberman dog with a characteristic first presentation of pemphigus folliaceus on the nose and paws was administered an oral dose of 500 mg daily of the BTK inhibitor (R,E)-2-(3-(4-amino-3-(2-fluoro-4-phenoxyphenyl)-1H-pyrazolo[3,4-d]-pyrimidin-1-yl)piperidine-1-carbonyl)-4,4-dimethylpent-2-enenitrile instead of the usual treatment for pemphigus of high dose corticosteroids (typically 1-2 mg/kg).
The dog responded clinically to the drug as a monotherapy within three days, with improved eating and ambulation noted by the owner.

T1 sequence (A0A8I3P3Z9 1-664): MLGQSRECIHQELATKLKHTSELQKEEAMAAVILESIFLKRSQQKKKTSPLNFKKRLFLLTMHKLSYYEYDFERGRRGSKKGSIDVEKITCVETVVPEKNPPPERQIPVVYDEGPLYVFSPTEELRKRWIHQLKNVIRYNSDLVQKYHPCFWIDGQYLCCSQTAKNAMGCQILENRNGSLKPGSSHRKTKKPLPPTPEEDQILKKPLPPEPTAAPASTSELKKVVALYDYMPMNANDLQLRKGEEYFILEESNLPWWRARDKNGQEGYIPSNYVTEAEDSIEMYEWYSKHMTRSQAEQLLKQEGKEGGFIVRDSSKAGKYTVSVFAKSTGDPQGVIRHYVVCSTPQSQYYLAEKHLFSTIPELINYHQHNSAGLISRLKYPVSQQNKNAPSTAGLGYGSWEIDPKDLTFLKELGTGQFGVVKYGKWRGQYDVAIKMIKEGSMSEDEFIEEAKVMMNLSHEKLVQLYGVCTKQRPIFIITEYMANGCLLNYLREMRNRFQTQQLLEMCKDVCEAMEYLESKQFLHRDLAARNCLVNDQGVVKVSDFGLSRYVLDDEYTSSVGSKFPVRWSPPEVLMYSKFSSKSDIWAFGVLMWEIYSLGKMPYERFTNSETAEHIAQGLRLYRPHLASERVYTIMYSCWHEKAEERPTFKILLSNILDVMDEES

Belimumab: an anti-Blys antibody
patients able to reduce corticosteroid use to <7.5 mg of prednisone ([1]; chronic SLE, week 40-52): ≤ 21% of patients (Benlysta US Product | effect on improvement of chronic SLE [1]: modest and delayed effect on improvement

Rituximab: anti-CD20 antibody rituximab, approved for treatment of B cell malignancies
side effects in treated patients ([2]; patients treated with rituximab): serious side effects such as pneumonia | onset of effect / clinical response [2]: Rituximab has delayed effect in pemphigus | time of maximal effect [2]: vulgaris with maximal effect at 8-12 weeks | onset of effect / clinical response ([2]; listed as rituximab): significant delay in clinical response | time of maximal effect ([2]; listed as rituximab): 8-12 weeks | cases achieving remission ([3]; despite concomitant use of corticosteroids for 5 months): in only 64% of cases despite concomitant use | onset of effect [3]: Rituximab has delayed effect in ANCA-

CC(C)(C)/C=C(\C#N)C(=O)N1CCC[C@@H](n2nc(-c3ccc(Oc4ccccc4)cc3F)c3c(N)ncnc32)C1 [(R,E)-2-(3-(4-amino-3-(2-fluoro-4-phenoxyphenyl)-1H-pyrazolo[3,4-d]-pyrimidin-1-yl)piperidine-1-carbonyl)-4,4-dimethylpent-2-enenitrile]
receptor occupancy at 500 mg (BTK): ~70% | manifestation of clinical response compared with systemic corticosteroid therapy (pemphigus folliaceus; dog PF): as rapid and comparable to that observed with systemic corticosteroid therapy | corticosteroid-like adverse effects (polyuria, polydipsia, polyphagia or weight gain) (pemphigus folliaceus; dog PF, oral 500 mg daily): none and No well-known corticosteroid-like adverse effects | skin lesions by four weeks (pemphigus folliaceus; dog PF, oral 500 mg daily, four weeks): completely healed | time to clinical response (improved eating and ambulation) (pemphigus folliaceus; dog PF, oral 500 mg daily, monotherapy): three | clinical status at one week follow up visit (pemphigus folliaceus; dog PF, oral 500 mg daily, one week): improved general health and commencement of pemphigus lesion healing | clinical status after two weeks of treatment (pemphigus folliaceus; dog PF, oral 500 mg daily, two weeks): general health of the dog was excellent and skin lesions continued to improve | overall efficacy and safety in treatment of PF (pemphigus folliaceus): effective and safe | overall efficacy and safety in treatment of PF (pemphigus folliaceus; listed as (R, E)-2-(3-(4-amino-3-(2-fluoro-4-phenoxyphenyl)-1H-pyrazolo[3,4-d]-pyrimidin-1))): rapidly control dog PF
